Results reported in patent US20260174745A1, “COMPOSITIONS AND METHODS FOR TREATING NF1 AND OTHER CONDITIONS” (priority 2022, published 2026).

What was measured:
[1] = test system: mammary tumors; conditions: previously shown; cited from earlier work
[2] = Triglyceride levels in LL2 dose ranging study; conditions: bexarotene 30 mg/kg; plasma
Procedure: In this study, 7-8 week old male C57/BL6 mice were injected with 1×10^6 LL2 cells subcutaneously into the left flank. Tumors were measured with calipers twice per week (Monday and Thursday) and mice were weighed once per week (Monday). […] When tumors reached endpoint (20×20 mm or ulceration), mice were euthanized and tumors fixed in formalin. Blood was collected for plasma. Stats: two-way ANOVA w/Tukey HSD.

[3] = test system: LL2 cells; test: LL2 subcutaneous tumor dose ranging study; type: in vivo, C57/BL6 mice; conditions: bexarotene 30 mg/kg
[4] = test system: mammary tumors; test: MMTV-neu mice with established mammary tumors; type: in vivo; conditions: for T cell / immune cell populations in mammary tumors: flow cytometry and IHC
Procedure: FIG. 5 is plots and stains obtained from MMTV-neu mice with established mammary tumors, which were treated with compound 1 for 10 days. Tumor size (A) was evaluated by calipers, immune cell populations by flow cytometry (B) and IHC (C). n=8 mice/group in A-C and n=4/group for quantification (D) of PCNA and p-ERK optical density. The data in FIG. 5 compound 1 reduces tumor burden and p-ERK and alters T cell populations in mammary tumors.

[5] = test system: NF1-ipNF 95.6 neurofibroma cells; test: MTT cell viability in neurofibroma cells; type: cell-based, human; conditions: 200 nM MSU42011, 100 nM selumetinib or combination, 72 hrs
Procedure: (§1) FIGS. 6A and 6B are a […] and a plot, respectively, generated from experiments on NF1-ipNF 95.6 neurofibroma cells treated with 50 nM selumetinib (Sel), 5 nM trametinib (Tra, an alternative MEK inhibitor used as a control), 200 nM compound 1, or the combination for 3 hours. Protein expression was evaluated by western blotting and LiCOR imaging (A). In B, cells were treated with 200 nM MSU42011, 100 nM Sel or the combination for 72 hrs, and cell viability measured using an MTT assay. *, P<0.05 vs. other groups.

[6] = test system: THP1 macrophages; test: CCL2 mRNA (qPCR) in THP1 macrophages stimulated with conditioned medium from ipNF95.6 cells; type: cell-based, human; conditions: 50 nM selumetinib, 200 nM compound 1 or combination, 24 hrs, PMA + CM
Procedure: FIG. 8 is a plot showing results of experiments involving THP1 human monocytes that were differentiated into macrophages with 50 ng/ml PMA for 3 days, followed by treatment with conditioned medium (CM) from ipNF95.6 neurofibroma cells and drugs (50 nM selumetinib (Sel), 200 nM compound 1, or the combination) for an additional 24 hrs. CCL2 expression was evaluated by qPCR and normalized to the DMSO control without treatment with PMA+CM (not shown). Data represent means±standard deviations of two independent experiments, p<0.05 vs. DMSO control.
FIG. 10A is a plot showing the results where THP1 monocytes were differentiated into macrophages with 50 ng/ml PMA for 3 days, followed by treatment with CM from human PNF cells (ipNF95.6) and drugs (50 nM selumetinib, 200 nM compound 1, or the combination) for an additional 24 hrs.
Combination treatment with compound 1 and selumetinib decreased CCL2 mRNA expression in THP1 cells and BMDM stimulated with conditioned media (CM) from human and mouse PNF cells. […] CCL2 mRNA expression was evaluated by qPCR and normalized to the DMSO control without CM treatment (not shown). Data represent means±standard deviations. * p<0.05, ** p<0.01 compared with vehicle treatment.

[7] = Triglyceride elevation in vivo
[8] = test system: NF1-ipNF 95.6 neurofibroma cells; test: p-ERK expression by western blotting in neurofibroma cells; type: cell-based, human; conditions: 3 hours; for reduction of p-ERK expression: 50 nM selumetinib, 200 nM compound 1 or combination
Procedure: as §1

[9] = test system: RXR; test: RXR activation; conditions: read-out: EC50 in activating RXR
[10] = test system: Kras-driven lung tumors; test: Established Kras-driven lung tumors in A/J mice (vinyl carbamate initiation); type: in vivo
Procedure: FIG. 2 is photographs of mouse lungs and mouse lung tissue section stains collected […] of Kras mutations with vinyl carbamate. A/J mice were fed control diet or RXR agonists (100 mg/kg diet or 25 mg/kg body weight) for 12 weeks. Lungs were harvested and photographed (A) and then sectioned and stained with hematoxylin and eosin (“H & E”) to evaluate tumor grade (B) as defined in collaboration with a human lung cancer pathologist. […] Compound 1 has the structure: FIG. 3 is a plot of tumor burden and photographs of mouse lung tissue section stains. Eight weeks after initiation of Kras mutations, A/J mice were fed control diet or compound 1 (25 mg/kg) for 12 weeks. Lungs were sectioned and stained with H & E or by immunohistochemistry (“IHC”) to evaluate tumor burden or biomarkers, respectively. […] FIG. 4 is plots showing data collected from lung tumors induced in A/J mice as described in FIG. 3. After 12 weeks of treatment with compound 1 (25 mg/kg) or control diet, lungs were harvested. Immune cell populations in the lungs were analyzed by flow cytometry using an optimized multi-colored panel of antibodies.

[11] = flow cytometry of lungs, p<0.05

Cc1cc2c(cc1C1(c3ccc(C(=O)O)cn3)CC1)C(C)(C)CCC2(C)C [LG100268]
CD206+ tumor-promoting macrophages, MDSCs and Foxp3+ Tregs in tumors [1]: decreased | number of activated cytotoxic CD8 T cells in tumors [1]: increased

C=C(c1ccc(C(=O)O)cc1)c1cc2c(cc1C)C(C)(C)CCC2(C)C [bexarotene]
CD206+ tumor-promoting macrophages, MDSCs and Foxp3+ Tregs in tumors [1]: not observed | number of activated cytotoxic CD8 T cells in tumors [1]: not observed | triglyceride levels [2]: raises triglycerides | activity against the tumors [3]: not active against the tumors

CC(C)N(c1cc(C(C)(C)C)cc(C(C)(C)C)c1)c1ccc(C(=O)O)cn1 [compound 1, 6-[(3,5-di-tert-butylphenyl) (propan-2-yl)amino]pyridine-3-carboxylic acid]
T cell / immune cell populations in mammary tumors [4]: alters | T cell / immune cell populations in mammary tumors ([4]; listed as Compound 1): alters the same immune cells in this model as LG100268 | p-ERK in mammary tumors ([4]; treated 10 days, IHC optical density): reduces | tumor burden in mammary tumors ([4]; treated 10 days, calipers): reduces | cell viability [5]: reduces viability | decrease of CCL2 mRNA expression [6]: 23% | elevation of triglycerides in vivo [7]: does not elevate triglycerides | reduction of p-ERK expression [8]: approximately 70% | expression of p-ERK ([8]; 200 nM compound 1, 50 nM selumetinib): decreases | EC50 [9]: 30 nM | lung tumor burden ([10]; 25 mg/kg in diet, 12 weeks): significantly (p=0.0015) reduced | tumor-promoting CD206+ macrophages within lung tumors ([10]; IHC): reduced | p-ERK levels within lung tumors ([10]; IHC, p=0.03): reduced | activated cytotoxic T cells (ratio of CD8+/CD4+, CD25+) [10, 11]: increased | immunosuppressive CD4+CD25+ Tregs [10, 11]: decreased | tumors that were high grade ([10]; histopathology, control group 77%, p<0.05): 62% | average tumor burden lower compared to the control and bexarotene groups ([10]; lungs of A/J mice, 100 mg/kg diet (25 mg/kg body weight), 12 weeks, p=0.015): 60% | number, size and histopathology of lung tumors ([10]; vs untreated controls and bexarotene-treated mice): significantly (p<0.05) decreased

Cn1cnc2c(F)c(Nc3ccc(Br)cc3Cl)c(C(=O)NOCCO)cc21 [selumetinib, reference compound]
reduction of p-ERK expression [8]: ~40%
